In the supplement of paper PMC8253809:

Tests used:
HGGX42 [1] = H3.3 G34R paediatric high-grade glioma line; assay: EC50 (inflection of fitted growth-inhibition curve) (log10 M)
Procedure, shortened: (§1)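 Viability readout was CellTiter-Glo luminescence, log2-transformed, normalised per plate to % activity between negative (solvent) and positive control wells, then pooled. This followed a 7-day exposure (3 days for iAstro) at 37 °C, 5% CO2 to a 10-point threefold dilution series (mean top concentration 35 μM), pin-tool delivered in triplicate to patient-derived pHGG/DIPG cell lines and astrocyte controls on 1% Geltrex-coated 384-well plates. Three- and four-parameter log-logistic fits were compared, and the one with the lowest AICc supplied EC50 and maximal response (yFin).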

HGGX6 [2] = H3.3 G34R paediatric high-grade glioma line; assay: as above
Procedure, shortened: as §1

DIPGX29 [3] = H3.3 K27M diffuse intrinsic pontine glioma line; assay: as above
Procedure, shortened: as §1

DIPGX37 [4] = H3.3 K27M diffuse intrinsic pontine glioma line; assay: as above
Procedure, shortened: as §1

SUDIPGIV [5] = diffuse intrinsic pontine glioma line; assay: as above
Procedure, shortened: as §1

HGGX2 [6] = paediatric high-grade glioma line; assay: as above
Procedure, shortened: as §1

SUDIPGXXI [7] = diffuse intrinsic pontine glioma line; assay: as above
Procedure, shortened: as §1

iAstro [8] = astrocyte control; assay: as above
Procedure, shortened: as §1

DIPGX7 [9] = H3.3 K27M diffuse intrinsic pontine glioma line; assay: as above
Procedure, shortened: as §1

SUDIPGXVII [10] = diffuse intrinsic pontine glioma line; assay: as above
Procedure, shortened: as §1

DIPGX9 [11] = diffuse intrinsic pontine glioma line; assay: as above
Procedure, shortened: as §1

HABS [12] = astrocyte control; assay: as above
Procedure, shortened: as §1

SUDIPGVI [13] = diffuse intrinsic pontine glioma line; assay: as above
Procedure, shortened: as §1

SUDIPGXIII [14] = diffuse intrinsic pontine glioma line; assay: as above
Procedure, shortened: as §1

HGGX39 [15] = paediatric high-grade glioma line; assay: as above
Procedure, shortened: as §1

HGGX42 [16] = assay: area under dose-response curve of % growth inhibition (log2 RLU vs DMSO / staurosporine), 1e-11 to 1e-4 M (% x log10 M); higher = more growth inhibition
Procedure, shortened: (§2)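 Patient-derived pHGG/DIPG cell lines and astrocytes, cultured on 384-well plates with a 1% Geltrex coating, were given a 10-point threefold dilution series (mean top concentration 35 μM) in triplicate for 7 days (iAstro 3 days) at 37 °C, 5% CO2. CellTiter-Glo signal, log2-transformed and normalised per plate to % activity against solvent and positive controls, was fitted with a log-logistic curve or, where the sigmoid fit failed, a smoothing spline. Area under the curve was then computed by the trapezoid rule.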

HGGX6 [17] = assay: as above
Procedure, shortened: as §2

DIPGX29 [18] = assay: as above
Procedure, shortened: as §2

DIPGX37 [19] = assay: as above
Procedure, shortened: as §2

SUDIPGIV [20] = assay: as above
Procedure, shortened: as §2

HGGX2 [21] = assay: as above
Procedure, shortened: as §2

SUDIPGXXI [22] = assay: as above
Procedure, shortened: as §2

iAstro [23] = assay: as above
Procedure, shortened: as §2

DIPGX7 [24] = assay: as above
Procedure, shortened: as §2

SUDIPGXVII [25] = assay: as above
Procedure, shortened: as §2

DIPGX9 [26] = assay: as above
Procedure, shortened: as §2

SUDIPGXIX = diffuse intrinsic pontine glioma line; assay: as above
Procedure, shortened: as §2

HABS [27] = assay: as above
Procedure, shortened: as §2

SUDIPGVI [28] = assay: as above
Procedure, shortened: as §2

SUDIPGXIII [29] = assay: as above
Procedure, shortened: as §2

HGGX39 [30] = assay: as above
Procedure, shortened: as §2

| Structure (SMILES) | EC50 (log10 M) (HGGX42 [1]) | EC50 (log10 M) (HGGX6 [2]) | EC50 (log10 M) (DIPGX29 [3]) | EC50 (log10 M) (DIPGX37 [4]) | EC50 (log10 M) (SUDIPGIV [5]) | EC50 (log10 M) (HGGX2 [6]) | EC50 (log10 M) (SUDIPGXXI [7]) | EC50 (log10 M) (iAstro [8]) | EC50 (log10 M) (DIPGX7 [9]) | EC50 (log10 M) (SUDIPGXVII [10]) | EC50 (log10 M) (DIPGX9 [11]) | EC50 (log10 M) (HABS [12]) | EC50 (log10 M) (SUDIPGVI [13]) | EC50 (log10 M) (SUDIPGXIII [14]) | EC50 (log10 M) (HGGX39 [15]) | area under dose-response curve (HGGX42 [16]) | area under dose-response curve (HGGX6 [17]) | area under dose-response curve (DIPGX29 [18]) | area under dose-response curve (DIPGX37 [19]) | area under dose-response curve (SUDIPGIV [20]) | area under dose-response curve (HGGX2 [21]) | area under dose-response curve (SUDIPGXXI [22]) | area under dose-response curve (iAstro [23]) | area under dose-response curve (DIPGX7 [24]) | area under dose-response curve (SUDIPGXVII [25]) | area under dose-response curve (DIPGX9 [26]) | area under dose-response curve (SUDIPGXIX) | area under dose-response curve (HABS [27]) | area under dose-response curve (SUDIPGVI [28]) | area under dose-response curve (SUDIPGXIII [29]) | area under dose-response curve (HGGX39 [30]) |
| --- | --- | --- | --- | --- | --- | --- | --- | --- | --- | --- | --- | --- | --- | --- | --- | --- | --- | --- | --- | --- | --- | --- | --- | --- | --- | --- | --- | --- | --- | --- | --- |
| CCOC(=O)CCNc1cc(N2CCc3ccccc3CC2)nc(-c2ccccn2)n1 [GSK-J4] | -4.87 | -4.85 | -4.87 | -4.9 | -5.01 | -5 | -5.9 | -5.51 | -5 | -4.99 | -4.99 | -4.98 | -4.9 | -4.82 | -4.98 | 87.1 | 63.1 | 80.7 | 67.7 | 62 | 100 | 213 | 97.7 | 46.8 | 54.8 | 103 | 104 | 71.4 | 52.4 | 61.1 | 62.2 |
| O=C(c1ccccc1)c1ccc2nc(NC(=O)c3csc(C4CCN(c5ncnc6ccsc56)CC4)n3)[nH]c2c1 | -5.14 | -5.19 | -5.26 | -5.87 | -5.86 | -5.06 | -5.2 | -5.2 | -5.45 | -5.91 | -5.03 | -5.18 | -5.46 | -5.72 | -5.87 | 72.8 | 55.8 | 97.4 | 89.1 | 51.4 | 83.7 | 147 | 88.4 | 135 | 68.3 | 62.6 | 118 | 42.1 | 67 | 114 | 55.4 |
| O=C(Nc1ccccc1-c1cn2c(CN3CCNCC3)csc2n1)c1cnc2ccccc2n1 [SRT1720] | -5.49 | -5.14 | -5.16 | -5.19 | -5.41 | -5.41 | -5.7 | -5.43 | -5.4 | -4.97 | -5.43 | -4.93 | -5.36 | -4.96 | -5.08 | 152 | 102 | 110 | 113 | 146 | 158 | 178 | 131 | 143 | 96.6 | 146 | 139 | 91.1 | 154 | 122 | 103 |
